# US20260256723A1, “THIOL-BASED COMPOUNDS AND COMPOSITIONS AND USES THEREOF” (CASE WESTERN RESERVE UNIVERSITY, priority 2022, published 2026)
# Several values for one entry are separate records, joined by “and”; a condition that tells them apart may be missing. Equal entries are not always repeated. Entries after “also recorded” stand apart in the source; their conditions may differ. Where two headings read alike, the source gives them in different places.
# Assays:
# [1] = test system: freely moving rats injected with morphine; experiment: Ventilatory responses to morphine and subsequent injections of L-NACme; type: in vivo, rat
# [2] = test system: rats given bolus injections of fentanyl or morphine; details: rat, in vivo
# [3] = test system: unanesthetized rats receiving continuous intravenous infusion of fentanyl; design: species or system Sprague Dawley rat; details: rat, in vivo
# [4] = test system: unanesthetized rats receiving continuous intravenous infusion of fentanyl; design: species or system Sprague Dawley rat; details: rat, in vivo; remark: listed apart in the source
# [5] = test system: unanesthetized rats receiving continuous intravenous infusion of fentanyl; design: species or system Sprague Dawley rat; details: rat, in vivo; remark: listed apart in the source
# [6] = test system: rats receiving infusion of fentanyl; design: species or system Sprague-Dawley rat; details: rat, in vivo
# [7] = test system: unanesthetized rats receiving continuous intravenous infusion of fentanyl; design: species or system Sprague Dawley rat; details: rat, in vivo; remark: listed apart in the source
# [8] = after morphine 10 mg/kg IV, two injections of L-NACme 500 μmol/kg IV
# [9] = before morphine, group later given L-NACme
# [10] = morphine 10 mg/kg IV, before L-NACme
smiles,measurement,setting,value
"CCOC(=O)[C@H](CS)NC(C)=O [L-NACme, N-acetyl-L-cysteine ethyl ester]","Frequency, Drug - entire 75 min, % change",[1]; [8],+11 ± 2 %
same,"Minute Ventilation, Drug - entire 75 min, % change",[1]; [8],−19 ± 4 %
same,"Tidal Volume, Drug - entire 75 min, % change",[1]; [8],−22 ± 3 %
same,"Frequency, Pre values",[1]; [9],98 ± 4
same,"Minute Ventilation, Pre values",[1]; [9],259 ± 17
same,"Tidal Volume, Pre values",[1]; [9],2.61 ± 0.16
same,"Frequency, Morphine - first 15 min response (%)",[1]; [10],−4.9 ± 2.8%
same,"Frequency, Morphine - peak (+) response (%)",[1]; [10],+42 ± 6 %
same,"Frequency, Morphine peak (−) response (%)",[1]; [10],−22 ± 4 %
same,"Minute Ventilation, Morphine - first 15 min response (%)",[1]; [10],−35 ± 3 %
same,"Minute Ventilation, Morphine - peak (+) response (%)",[1]; [10],+20 ± 6 %
same,"Minute Ventilation, Morphine peak (−) response (%)",[1]; [10],−54 ± 4 %
same,"Tidal Volume, Morphine - first 15 min response (%)",[1]; [10],−34 ± 3 %
same,"Tidal Volume, Morphine - peak (+) response (%)",[1]; [10],−16 ± 6 %
same,"Tidal Volume, Morphine peak (−) response (%)",[1]; [10],−40 ± 6 %
"CC(=O)N[C@@H](CS)C(=O)O [L-NAC, N-acetyl-L-cysteine]",Effect of bolus L-NAC on bolus opioid,[2],completely without effect
same,"Righting reflex, time to get back on all four paws",[3],4.6 ± 1.5 s
same,A-a gradient,[4],17.9 ± 0.7 mmHg
same,Arterial blood pH,[4],7.442 ± 0.008
same,"Beneficial effects on ABG chemistry and A-a gradient (words, FIG. 9)",[4],still evident 30 min after the second injection of L-NAC
same,pCO2,[4],35.7 ± 0.03 mmHg
same,pO2,[4],92.1 ± 0.07 mmHg
same,sO2,[4],99.0 ± 0.4%
same,A-a gradient,[4]; iv,27.6 ± 0.8 mmHg and 23.1 ± 1.3 mmHg and 26.1 ± 1.5 mmHg
same,Arterial blood pH,[4]; iv,7.162 ± 0.026 and 7.392 ± 0.006 and 7.443 ± 0.013
same,pCO2,[4]; iv,57.3 ± 1.5 mmHg and 36.2 ± 1.1 mmHg and 35.2 ± 0.4 mmHg
same,pO2,[4]; iv,58.4 ± 1.9 mmHg and 86.3 ± 1.6 mmHg and 84.5 ± 1.4 mmHg
same,sO2,[4]; iv,59.1 ± 1.8% and 93.6 ± 0.9% and 92.4 ± 1.2%
same,"EEP, actual value",[5],45.4 ms
same,"EF50, baseline",[5],0.36 ± 0.03 mL/s
same,"EIP, actual value",[5],7.9 ms
same,"Effect on Freq, TV and MV (words, FIG. 1)",[5],immediate and sustained increase in these parameters to levels approaching (Freq and MV) and actually reaching (TV) pre-infusion levels; also recorded: did not further boost Freq whereas it did boost TV and therefore MV
same,"Effect on NEBI (words, FIG. 11)",[5],noticeable decrease in NEBI
same,"Effect on PEF (words, FIG. 4)",[5],substantial and sustained increases in PEF
same,"Effect on PIF (words, FIG. 4)",[5],sustained partial recover of PIF
same,"Effect on Te (words, FIG. 2)",[5],prevented this increase in Te
same,"Effect on Ti/Te (words, FIG. 2)",[5],sustained elevation in Ti/Te compared to vehicle-injected rats
same,"Effect on expiratory drive (words, FIG. 5)",[5],"immediate, substantial and sustained increases in expiratory dive"
same,"End Expiratory Pause, baseline",[5],44.3 ± 4.0
same,"ExpD TV/Te, actual value",[5],5.5 mL/s
same,"Expiratory Drive (TV/Te), baseline",[5],5.5 ± 0.3 mL/s
same,"Expiratory Time (Te), baseline",[5],0.443 ± 0.022 s
same,"Freq, actual value",[5],102 breaths/min
same,"Frequency of Breathing (Freq), baseline",[5],102 ± 5 breaths/min
same,"InspD (TV/Ti), actual value",[5],12.4 mL/s
same,"Inspiratory Drive (TV/Ti), baseline",[5],12.4 ± 0.6 mL/s
same,"Inspiratory Time (Ti), baseline",[5],0.200 ± 0.010 s
same,"Level of NEBI (words, FIG. 11)",[5],not noticeably different from those that received the second injection of vehicle
same,"MV, actual value",[5],247 mL/min
same,"Minute Ventilation, baseline",[5],247 ± 14 mL/min
same,"NEBI, actual value",[5],2.6%
same,"PEF, actual value",[5],11.2
same,"PIF/PEF, actual value",[5],1.61
same,"PIF/PEF, baseline",[5],1.63 ± 0.11
same,"Pause, (Te/RT) − 1, baseline",[5],0.40 ± 0.08
same,"Pause, (Te/RT)-1, actual value",[5],0.40
same,"Peak Expiratory Flow (PEF), baseline",[5],11.2 ± 0.7 mL/s
same,"Peak Inspiratory Flow (PIF), baseline",[5],17.6 ± 1.1 mL/s
same,"RT, actual value",[5],0.32 s
same,"Relaxation Time (RT), baseline",[5],0.32 ± 0.02 s
same,"TV, actual value",[5],2.42 mL
same,"Te − RT, baseline",[5],0.12 ± 0.02
same,"Te, actual value",[5],0.44 s
same,"Te-RT, actual value",[5],0.12
same,"Ti, actual value",[5],0.20 s
same,"Ti/Te, actual value",[5],0.46
same,"Ti/Te, baseline",[5],0.46 ± 0.02
same,"Tidal Volume, baseline",[5],2.42 ± 0.05 mL
same,"Total (cumulative) change in NEBI (words, FIG. 7)",[5],virtually eliminated NEBI
same,"Total (cumulative) change in PEF (words, FIG. 7)",[5],pronounced increase in PEF
same,"Total (cumulative) change in expiratory drive (words, FIG. 7)",[5],converted the decrease in expiratory drive (ExpD) to an increase
same,"EF50, total percent change",[5]; iv,+57.6 ± 11.3%
same,"EIP, actual value",[5]; iv,20.2 ms and 19.7 ms
same,"EIP, arithmetic change",[5]; iv,+12 msec
same,"End Expiratory Pause, total percent change",[5]; iv,+9.1 ± 6.3%
same,"End Inspiratory Pause, total percent change",[5]; iv,+147.0 ± 12.9%
same,"ExpD TV/Te, actual value",[5]; iv,4.6 mL/s and 6.9 mL/s and 8.1 mL/s
same,"Expiratory Drive (TV/Te), total percent change",[5]; iv,−14.6 ± 3.1%
same,"Expiratory Time (Te), total percent change",[5]; iv,−10.3 ± 3.5%
same,"Freq, actual value",[5]; iv,78 breaths/min and 90 breaths/min and 89 breaths/min
same,"Frequency of Breathing (Freq), total percent change",[5]; iv,−21.6 ± 2.4%
same,"InspD (TV/Ti), actual value",[5]; iv,4.8 mL/s and 6.6 mL/s and 7.9 mL/s
same,"Inspiratory Drive (TV/Ti), total percent change",[5]; iv,−56.3 ± 2.7%
same,"Inspiratory Time (Ti), total percent change",[5]; iv,+82.5 ± 14.1%
same,"MV, actual value",[5]; iv,135 mL/min and 210 mL/min and 241 mL/min
same,"Minute Ventilation, total percent change",[5]; iv,−39.9 ± 2.7%
same,"NEBI, actual value",[5]; iv,2.0% and 1.0% and 1.3%
same,"NEBI, arithmetic change",[5]; iv,−0.6% and −1.6% and −1.3%
same,"PEF, actual value",[5]; iv,11.2 and 13.8 and 15.3
same,"PIF/PEF, actual value",[5]; iv,0.82 and 0.84 and 0.93
same,"PIF/PEF, total percent change",[5]; iv,−42.1 ± 4.7%
same,"Pause, (Te/RT) − 1, total percent change",[5]; iv,+348.6 ± 67.4%
same,"Pause, (Te/RT)-1, actual value",[5]; iv,1.32 and 0.94
same,"Peak Expiratory Flow (PEF), total percent change",[5]; iv,−2.2 ± 2.8%
same,"Peak Inspiratory Flow (PIF), total percent change",[5]; iv,−44.0 ± 3.7%
same,"RT, actual value",[5]; iv,0.17 s and 0.18 s
same,"Relaxation Time (RT), total percent change",[5]; iv,−41.4 ± 4.6%
same,"TV, actual value",[5]; iv,1.73 mL and 2.34 mL and 2.71 mL
same,"Te − RT, total percent change",[5]; iv,+129.9 ± 28.2%
same,"Te, actual value",[5]; iv,0.38 s and 0.34 s
same,"Te-RT, actual value",[5]; iv,0.21 and 0.17 and 0.16
same,"Ti, actual value",[5]; iv,0.36 s and 0.35 s
same,"Ti/Te, actual value",[5]; iv,0.96 and 1.06 and 1.05
same,"Ti/Te, total percent change",[5]; iv,+104.4 ± 11.6%
same,"Tidal Volume, total percent change",[5]; iv,−23.5 ± 2.5%
same,"Fecal output, number of pellets, total weight (words, FIG. 13C-D)",[6],normalized by L-NAC injections
same,"Urine and fecal parameters (words, FIG. 13)",[6],did not affect parameters in vehicle-infused rats
same,Actual TFL values,[7],11.9 ± 0.1 s and 11.5 ± 0.1 s
